According to patent US20220340597A1, “HEXAHYDRO-1H-PYRAZINO[1,2-A]PYRAZINE COMPOUNDS FOR THE TREATMENT OF AUTOIMMUNE DISEASE” (Hoffmann-La Roche Inc., priority 2019, published 2022):

Experiments:
human TLR8 = target: T1, human TLR8 (Homo sapiens, UniProt Q9NR97); test: HEK293-Blue-hTLR-8 cells assay
T1 sequence (Q9NR97 27-1041): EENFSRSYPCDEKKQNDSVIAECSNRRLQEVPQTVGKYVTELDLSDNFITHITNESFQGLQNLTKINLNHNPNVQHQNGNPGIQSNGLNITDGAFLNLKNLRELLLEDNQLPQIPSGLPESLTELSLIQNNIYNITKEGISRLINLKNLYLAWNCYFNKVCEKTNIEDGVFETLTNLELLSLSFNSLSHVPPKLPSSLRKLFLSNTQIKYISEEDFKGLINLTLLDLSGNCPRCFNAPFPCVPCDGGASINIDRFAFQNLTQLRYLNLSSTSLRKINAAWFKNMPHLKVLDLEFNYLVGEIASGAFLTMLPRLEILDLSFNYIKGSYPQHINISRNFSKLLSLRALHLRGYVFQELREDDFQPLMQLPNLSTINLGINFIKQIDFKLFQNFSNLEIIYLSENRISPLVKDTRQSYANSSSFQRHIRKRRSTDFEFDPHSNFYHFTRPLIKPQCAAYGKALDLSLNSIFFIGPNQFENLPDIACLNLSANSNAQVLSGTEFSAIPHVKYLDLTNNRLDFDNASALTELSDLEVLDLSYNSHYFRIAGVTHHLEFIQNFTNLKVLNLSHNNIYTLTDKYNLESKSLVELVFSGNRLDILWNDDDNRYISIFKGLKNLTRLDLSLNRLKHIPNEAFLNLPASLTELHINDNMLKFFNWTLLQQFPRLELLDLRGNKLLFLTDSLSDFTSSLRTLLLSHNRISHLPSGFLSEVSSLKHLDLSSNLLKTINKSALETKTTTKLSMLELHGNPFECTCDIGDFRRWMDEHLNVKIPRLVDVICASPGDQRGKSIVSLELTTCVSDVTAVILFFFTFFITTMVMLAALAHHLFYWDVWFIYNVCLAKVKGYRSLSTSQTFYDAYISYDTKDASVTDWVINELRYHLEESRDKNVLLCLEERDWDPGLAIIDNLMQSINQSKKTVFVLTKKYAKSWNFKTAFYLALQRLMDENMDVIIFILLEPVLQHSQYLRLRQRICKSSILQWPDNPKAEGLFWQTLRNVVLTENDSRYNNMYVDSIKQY

human TLR7 = target: T2, human TLR7 (Homo sapiens, UniProt Q9NYK1); test: HEK293-Blue-hTLR-7 cells assay; assay type: cell-based; settings: HEK293-Blue-hTLR7 cells, R848 stimulation, 20 hrs, SEAP reporter; read-out: HEK/hTLR7 IC50
T2 construct: host or cells: HEK293 (HEK-Blue hTLR7)
T2 sequence (Q9NYK1 27-1049): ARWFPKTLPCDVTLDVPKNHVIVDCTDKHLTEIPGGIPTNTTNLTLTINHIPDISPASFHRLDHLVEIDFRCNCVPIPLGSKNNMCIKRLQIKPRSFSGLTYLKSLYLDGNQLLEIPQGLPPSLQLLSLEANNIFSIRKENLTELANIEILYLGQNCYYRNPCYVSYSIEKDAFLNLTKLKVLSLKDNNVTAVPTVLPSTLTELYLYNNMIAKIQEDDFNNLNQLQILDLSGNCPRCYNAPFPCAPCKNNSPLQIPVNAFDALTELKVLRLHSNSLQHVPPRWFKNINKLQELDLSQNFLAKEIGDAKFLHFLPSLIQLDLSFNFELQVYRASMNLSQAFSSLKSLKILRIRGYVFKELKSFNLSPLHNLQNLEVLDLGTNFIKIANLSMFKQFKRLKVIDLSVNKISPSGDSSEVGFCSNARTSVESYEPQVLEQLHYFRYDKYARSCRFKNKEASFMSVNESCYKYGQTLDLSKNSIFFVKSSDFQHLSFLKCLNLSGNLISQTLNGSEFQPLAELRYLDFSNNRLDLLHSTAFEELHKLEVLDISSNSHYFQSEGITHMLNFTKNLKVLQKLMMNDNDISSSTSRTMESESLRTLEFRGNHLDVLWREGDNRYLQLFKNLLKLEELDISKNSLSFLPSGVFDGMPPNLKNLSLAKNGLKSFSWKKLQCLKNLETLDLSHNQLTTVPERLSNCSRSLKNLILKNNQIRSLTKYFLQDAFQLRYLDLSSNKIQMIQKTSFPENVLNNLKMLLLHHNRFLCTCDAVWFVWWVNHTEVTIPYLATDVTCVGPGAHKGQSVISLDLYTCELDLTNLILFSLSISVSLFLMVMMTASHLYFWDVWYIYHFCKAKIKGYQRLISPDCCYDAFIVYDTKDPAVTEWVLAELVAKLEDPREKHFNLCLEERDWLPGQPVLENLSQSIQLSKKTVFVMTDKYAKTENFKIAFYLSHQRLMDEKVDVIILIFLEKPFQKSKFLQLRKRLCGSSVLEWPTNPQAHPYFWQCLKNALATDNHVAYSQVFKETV

Row | Compound | IC50 (human TLR8) [nM] | IC50 (human TLR7) [nM]
1 | Cc1cc(N2CCNCC2)cnc1N1CCN2[C@@H](C1)CN(c1cc(=O)n(C)c3ncccc13)C[C@H]2C [Example 93, 4-[(4R,9aR)-4-methyl-8-(3-methyl-5-piperazin-1-yl-2-pyridyl)-3,4,6,7,9,9a-hexahydro-1H-pyrazino[1,2-a]pyrazin-2-yl]-1-methyl-1,8-naphthyridin-2-one] | 61 | 10
2 | [2H]c1ccc2c(N3C[C@@H]4CN(Cc5nc(N6CCNCC6)ccc5C)CCN4[C@H](C)C3)ccc(C#N)c2n1 [Example 88, 5-[(4R,9aS)-4-methyl-8-[(3-methyl-6-piperazin-1-yl-2-pyridyl)methyl]-3,4,6,7,9,9a-hexahydro-1H-pyrazino[1,2-a]pyrazin-2-yl]-2-deuterio-quinoline-8-carbonitrile] | 10 | 40
3 | [2H]c1ccc2c(N3C[C@@H]4CN(Cc5ccc(N6CC7CCC(C6)N7)nc5C)CCN4[C@H](C)C3)ccc(C#N)c2n1 [Example 91, 5-[(4R,9aS)-8-[[6-(3,8-diazabicyclo[3.2.1]octan-3-yl)-2-methyl-3-pyridyl]methyl]-4-methyl-3,4,6,7,9,9a-hexahydro-1H-pyrazino[1,2-a]pyrazin-2-yl]-2-deuterio-quinoline-8-carbonitrile] | 20 | 15
4 | [2H]c1ccc2c(N3C[C@@H]4CN(Cc5ccc(N6CC7CC(C6)N7)nc5C)CCN4[C@H](C)C3)ccc(C#N)c2n1 [Example 90, 5-[(4R,9aS)-8-[[6-(3,6-diazabicyclo[3.1.1]heptan-3-yl)-2-methyl-3-pyridyl]methyl]-4-methyl-3,4,6,7,9,9a-hexahydro-1H-pyrazino[1,2-a]pyrazin-2-yl]-2-deuterio-quinoline-8-carbonitrile] | 8 | 13
5 | Cc1nc(N2CCNC[C@@H]2C)ccc1CN1CCN2[C@@H](C1)CN(c1ccc(C#N)c3ncccc13)C[C@H]2C [Example 85, 5-[(4R,9aS)-4-methyl-8-[[2-methyl-6-[(2S)-2-methylpiperazin-1-yl]-3-pyridyl]methyl]-3,4,6,7,9,9a-hexahydro-1H-pyrazino[1,2-a]pyrazin-2-yl]quinoline-8-carbonitrile] | 10 | 19
6 | [2H]c1ccc2c(N3C[C@@H]4CN(Cc5ccc(N6CC7CNCC(C6)O7)nc5C)CCN4[C@H](C)C3)ccc(C#N)c2n1 [Example 83, 5-[(4R,9aS)-4-methyl-8-[[2-methyl-6-(9-oxa-3,7-diazabicyclo[3.3.1]nonan-3-yl)-3-pyridyl]methyl]-3,4,6,7,9,9a-hexahydro-1H-pyrazino[1,2-a]pyrazin-2-yl]-2-deuterio-quinoline-8-carbonitrile] | 7 | 17
7 | [2H]c1ccc2c(N3C[C@@H]4CN(Cc5cnc(N6C[C@@H]7C[C@H]6CN7)cc5C)CCN4[C@H](C)C3)ccc(C#N)c2n1 [Example 94, 5-[(4R,9aS)-8-[[6-[(1S,4S)-2,5-diazabicyclo[2.2.1]heptan-2-yl]-4-methyl-3-pyridyl]methyl]-4-methyl-3,4,6,7,9,9a-hexahydro-1H-pyrazino[1,2-a]pyrazin-2-yl]-2-deuterio-quinoline-8-carbonitrile] | 8 | 25
8 | [2H]c1ccc2c(N3C[C@@H]4CN(Cc5ccc(N6C[C@H]7NCCO[C@@H]7C6)nc5C)CCN4[C@H](C)C3)ccc(C#N)c2n1 [Example 98, 5-[(4R,9aS)-8-[[6-[(4aR,7aR)-3,4,4a,5,7,7a-hexahydro-2H-pyrrolo[3,4-b][1,4]oxazin-6-yl]-2-methyl-3-pyridyl]methyl]-4-methyl-3,4,6,7,9,9a-hexahydro-1H-pyrazino[1,2-a]pyrazin-2-yl]-2-deuterio-quinoline-8-carbonitrile] | 10 | 24
9 | [2H]c1ccc2c(N3C[C@@H]4CN(c5ncc(N6C[C@@H]7C[C@H]6CN7)cc5C)CCN4[C@H](C)C3)ccc(C#N)c2n1 [Example 95, 5-[(4R,9aR)-8-[5-[(1S,4S)-2,5-diazabicyclo[2.2.1]heptan-2-yl]-3-methyl-2-pyridyl]-4-methyl-3,4,6,7,9,9a-hexahydro-1H-pyrazino[1,2-a]pyrazin-2-yl]-2-deuterio-quinoline-8-carbonitrile] | 6 | 2
10 | C[C@@H]1CN(c2ccc(C#N)c3ncccc23)C[C@@H]2CN(Cc3ccc4c(c3)CNCC4)CCN21 (relative stereo) [Example 1] | 10 | 17

Now those with a lower IC50 (human TLR8), led by results:

Row | IC50 (human TLR8) [nM] | IC50 (human TLR7) [nM] | Compound
11 | 4 | 2 | [2H]c1ccc2c(N3C[C@@H]4CN(c5ncc(N6CC[C@@](C)(N)C6)cc5C)CCN4[C@H](C)C3)ccc(C#N)c2n1 [Example 97, 5-[(4R,9aR)-8-[5-[(3R)-3-amino-3-methyl-pyrrolidin-1-yl]-3-methyl-2-pyridyl]-4-methyl-3,4,6,7,9,9a-hexahydro-1H-pyrazino[1,2-a]pyrazin-2-yl]-2-deuterio-quinoline-8-carbonitrile]
12 | 5 | 23 | [2H]c1ccc2c(N3C[C@@H]4CN(Cc5ccc(N6CC7(CN(C)C7)C6)nc5C)CCN4[C@H](C)C3)ccc(C#N)c2n1 [Example 80, 5-[(4R,9aS)-4-methyl-8-[[2-methyl-6-(6-methyl-2,6-diazaspiro[3.3]heptan-2-yl)-3-pyridyl]methyl]-3,4,6,7,9,9a-hexahydro-1H-pyrazino[1,2-a]pyrazin-2-yl]-2-deuterio-quinoline-8-carbonitrile]
13 | 3 | 1 | [2H]c1ccc2c(N3C[C@@H]4CN(c5ncc(N6C[C@H]7NCCO[C@@H]7C6)cc5C)CCN4[C@H](C)C3)ccc(C#N)c2n1 [Example 100, 5-[(4R,9aR)-8-[5-[(4aR,7aR)-3,4,4a,5,7,7a-hexahydro-2H-pyrrolo[3,4-b][1,4]oxazin-6-yl]-3-methyl-2-pyridyl]-4-methyl-3,4,6,7,9,9a-hexahydro-1H-pyrazino[1,2-a]pyrazin-2-yl]-2-deuterio-quinoline-8-carbonitrile]
14 | 5 | 2 | [2H]c1ccc2c(N3C[C@@H]4CN(c5ncc(N6C[C@@H](N)[C@@H](OC)C6)cc5C)CCN4[C@H](C)C3)ccc(C#N)c2n1 [Example 96, 5-[(4R,9aR)-8-[5-[(3R,4S)-3-amino-4-methoxy-pyrrolidin-1-yl]-3-methyl-2-pyridyl]-4-methyl-3,4,6,7,9,9a-hexahydro-1H-pyrazino[1,2-a]pyrazin-2-yl]-2-deuterio-quinoline-8-carbonitrile]
15 | 5 | 16 | [2H]c1ccc2c(N3C[C@@H]4CN(Cc5ccc(N6CC[C@@](C)(N)C6)nc5C)CCN4[C@H](C)C3)ccc(C#N)c2n1 [Example 81, 5-[(4R,9aS)-8-[[6-[(3R)-3-amino-3-methyl-pyrrolidin-1-yl]-2-methyl-3-pyridyl]methyl]-4-methyl-3,4,6,7,9,9a-hexahydro-1H-pyrazino[1,2-a]pyrazin-2-yl]-2-deuterio-quinoline-8-carbonitrile]
